According to patent publication US7005437B2, “Substituted aryl and heteroaryl derivatives, the preparation thereof and the use therof as pharmaceutical compositions” (Boehringer Ingelheim Pharma KG, priority 2001, dated 2006):
pIC50: −log10 of the molar value. Structures can show the parent of a compound that is named as a salt.

Target: T1, human factor Xa (Homo sapiens, UniProt P00742)
T1 construct: released from the colourless chromogenic substrate by human factor Xa; purchased Roche
Assay: Factor Xa inhibition, enzyme-kinetic measurement with chromogenic substrate
Type: biochemical
Conditions: chromogenic substrate Chromozym X, pNA release at 405 nm, pH 8.0, 37° C.
Protocol: The compounds of Examples 1 to 45 of the present application were investigated for their effect on the inhibition of factor Xa as follows: Method: Enzyme-kinetic measurement with chromogenic substrate. The quantity of p-nitroaniline (pNA) released from the colourless chromogenic substrate by human factor Xa is determined photometrically at 405 nm. It is proportional to the activity of the enzyme used. The inhibition of the enzyme activity by the test substance (in relation to the solvent control) is determined at various concentrations of test substance and from this the IC50 is calculated, as the concentration which inhibits the factor Xa used by 50%.
Tris(hydroxymethyl)-aminomethane buffer (100 mMol) of and sodium chloride (150 mMol), pH 8.0
Factor Xa (Roche), spec. activity: 10 U/0.5 ml, final concentration: 0.175 U/ml for each reaction mixture
Substrate Chromozym X (Roche), final concentration: 200 μMol/l for each reaction mixture
10 μl of a 23.5-times concentrated starting solution of the test substance or solvent (control), 175 μl of tris(hydroxymethyl)-aminomethane buffer and 25 μl of a 1.65 U/ml Factor Xa working solution are incubated for 10 minutes at 37° C. After the addition of 25 μl of Chromozym X working solution ([…]) the sample is measured in a photometer (SpectraMax 250) at 405 nm for 150 seconds at 37° C.
1. […]

T1 sequence (P00742 235-488 limits assumed): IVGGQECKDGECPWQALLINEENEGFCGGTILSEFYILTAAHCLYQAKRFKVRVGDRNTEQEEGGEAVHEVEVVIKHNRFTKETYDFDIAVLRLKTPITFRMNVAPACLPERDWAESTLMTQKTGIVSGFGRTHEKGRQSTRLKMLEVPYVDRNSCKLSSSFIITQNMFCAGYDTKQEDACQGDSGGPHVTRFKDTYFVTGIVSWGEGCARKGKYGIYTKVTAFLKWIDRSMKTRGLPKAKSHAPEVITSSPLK
T1 sequence (P00742 41-179 partner limits assumed): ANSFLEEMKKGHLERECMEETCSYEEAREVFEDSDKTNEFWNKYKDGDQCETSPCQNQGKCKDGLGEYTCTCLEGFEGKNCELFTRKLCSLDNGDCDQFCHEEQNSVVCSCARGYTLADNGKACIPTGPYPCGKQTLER

pIC50: 8.40
Compound: Cc1cc(C#CCN(Cc2ccccc2)c2cccc(C(=N)N)c2)ccc1C(=O)N1CC=CC1 [Example 37, 3-{N-benzyl-3-[3-methyl-4-(2,5-dihydropyrrol-1-yl-carbonyl)-phenyl]-propargylamino}-benzamidine-hydrochloride]
